Results: patent US7238668B1, “Inhibition of lymphocyte adherence with CS-1-peptides and fragments thereof” (Fred Hutchinson Cancer Research Center, priority 1989, dated 2007)
Ends that are not written are not given here.

Experiments:
[1] = system: Jurkat cells; assay: Jurkat cell adhesion to surfaces coated with peptide-rsa conjugates; assay type: cell-based, human; settings: Jurkat; FIG. 12; 5 ug/ml peptide; 30 min
Experimental: ^51Cr-labeled Jurkat cells ([…]) were incubated on surfaces coated with varying concentrations of peptide-rsa conjugates starting at 50 ug/ml (w/v) fragment or peptide (based on peptide not peptide-conjugate weight). […] (No adhesion=no measurable adhesion above negative controls.)
(§1) Adhesion of various hematopoetic cell lines to CS-1 (open bars; FIG. 12) or LDV minimal peptide-coated surfaces (cross-hatched bars; FIG. 12) was tested as follows: Jurkat (T lymphoblastoid), A375 (melanoma), U937 (monocytic), Ramos (B lymphoblastoid), and ST-1 (EBV transformed B lymphoblastoid) cells were allowed to adhere to CS-1-rsa or LDVPST-rsa (5 ug/ml peptide) coated surfaces for 30 min at 37° C. At the end of this time the non-adherent cells were washed off and the adherent cells were solubilized in NaOH/SDS and quantitated in a gamma counter. The results are expressed as bound counts per minute.

[2] = system: A375 melanoma cells; assay: A375 melanoma cell adhesion to peptide-rsa coated surfaces; assay type: cell-based, human; settings: FIG. 12, 5 ug/ml peptide, 30 min
Experimental: as §1

LDVPST-RSA: LDVPST conjugated to rabbit serum albumin (also: conjugated to rabbit serum albumin, site not given here)
Cell adhesion to conjugate-coated surfaces [1]: only slightly | Cell adhesion to conjugate-coated surfaces [2]: adhered
